# Literature values, collected in patent US20010036658A1, “Culture media for growing spirochetes” (priority 1997, published 2001).
# Read-outs that look alike come from different tables or passages of the source.
structure (smiles),measurement,setting,value
COc1cccc2c1C(=O)c1c(O)c3c(c(O)c1C2=O)C[C@@](O)(C(=O)CO)C[C@@H]3O[C@H]1C[C@H](N)[C@H](O)[C@H](C)O1 [doxorubicin],anti-bacterial activity,L-forms of bacteria; certain L-forms of bacteria,dramatic anti-bacterial activity
same,anti-bacterial activity,L-forms of bacteria; parent forms of the same bacteria,without any demonstrable effect
same,conversion of normal erythrocytes to echinocytes,erythrocytes,prevents
